# “And” between values parts separate entries of the source, which are not always exact repeats. Identical values can stand only once.
# Experiments:
# P. gingivalis ATCC3277 = assay: MIC against oral organisms in the serial dilution test; format: cell-based, Porphyromonas gingivalis; settings: Columbia broth with hemin and menadione, 7-10 days at 37° C. anaerobic, unit not given, stock solutions in ppm (w/w)
# Description: (§1) Determination of the MIC Against Various Oral Organisms in the Serial Dilution Test
# (§2) Medium: Thioglycolate broth with hemin and menadione • Columbia broth with hemin and menadione for P. gingivalis and P. nigrescens
# (§3) Dilution medium: The appropriate amount of the substances was pipetted directly onto the medium.
# (§4) Test organisms: Actinobacillus actinomycetemcomitans ATCC 43718 • Streptococcus gordonii ATCC 10558 • Streptococcus mutans ATCC 33402 • Actinomyces viscosus ATCC 43146 • Fusobacterium nucleatum subsp. polymorphum ATCC 10953 • Porphyromonas gingivalis ATCC 33277 • Prevotella nigrescens ATCC 33563
# (§5) Incubation: 7-10 days at 37° C. anaerobic, or 24 h aerobic with 10% CO2for Streptococci and A. actinomycetemcomitans
# (§6) Test solution: Stock solutions of all the test substances in ethanol comprising 1500 ppm (w/w) are used.
# (§7) Bacteria are removed from blood agar plates using cotton-wool-tipped sticks and a suitable O.D. is established in the appropriate medium (McFarland 0.5); this solution is used undiluted for F. nucleatum and P. nigrescens and diluted 1:20 for the other strains. 0.1 ml of bacteria culture is added to 2 ml of each of the active substance solutions, and incubation is carried out as described above.
# S. gordonii ATCC10558 = assay: as above; format: cell-based, Streptococcus gordonii; settings: thioglycolate broth, 24 h aerobic with 10% CO2, unit not given, stock solutions in ppm (w/w)
# Description: as §1, §2, §3, §4, §5, §6, §7
# S. mutans ATCC33402 = assay: as above; format: cell-based, Streptococcus mutans; settings: thioglycolate broth, 24 h aerobic with 10% CO2, unit not given, stock solutions in ppm (w/w)
# Description: as §1, §2, §3, §4, §5, §6, §7
# [1] = system: A. actinomycetemcomitans ATCC43718; assay: as above; format: cell-based, Actinobacillus actinomycetemcomitans; settings: thioglycolate broth, 24 h aerobic with 10% CO2, unit not given, stock solutions in ppm (w/w)
# Description: as §1, §2, §3, §4, §5, §6, §7
# [2] = system: Actinomyces viscosus ATCC 43146; assay: Substantivity on hydroxyapatite and growth-inhibiting action; format: cell-based; settings: plates pretreated with synthetic saliva, incubated in ethanolic solution comprising 50 and 500 ppm; 24 hours at 37° C.; in comparison with an untreated control (FIGS. 1 and 2)
# Method: Principle: apatite plates (dia. 10 mm) are placed in synthetic saliva (Deutsche Zahnärztliche Zeitschrift DZZ May 2002), rinsed in NaCl and then incubated in an ethanolic solution of test substances (II) and (III) comprising 50 and 500 ppm. The plates are then introduced into a Nunclon Surface titre plate (12 wells) and incubated for 24 hours at 37° C. in Caso nutrient medium which has been inoculated with Actinomyces viscosus ATCC 43146 (about 10^5/ml).
# [3] = system: F. nucleatum subsp. polymorphum ATCC10953; assay: MIC against oral organisms in the serial dilution test; format: cell-based, Fusobacterium nucleatum subsp. polymorphum; settings: thioglycolate broth, 7-10 days at 37° C. anaerobic, unit not given, stock solutions in ppm (w/w)
# Description: as §1, §2, §3, §4, §5, §6, §7
# P. nigrescens ATCC33563 = assay: as above; format: cell-based, Prevotella nigrescens; settings: Columbia broth with hemin and menadione, 7-10 days at 37° C. anaerobic, unit not given, stock solutions in ppm (w/w)
# Description: as §1, §2, §3, §4, §5, §6, §7
# [4] = system: biofilm of a defined mixed culture of gram+ and gram− oral organisms and a yeast (Candida albicans) on hydroxyapatite discs; assay: Activity in the biofilm model (in vitro supragingival plaque); format: cell-based; settings: 0.5% substance (II) in mouthwash formulation
# Description: Test of the Activity of 2-dodecyloxy-benzoic Acid (II) in the Biofilm Model
# Principle: see Guggenheim et a/. (2001), “Validation of an in vitro biofilm model of supragingival plaque”, J. Dent Res. 80 (1)
# Hydroxyapatite discs are pretreated with human saliva and a biofilm of a defined mixed culture of various gram+ and gram− oral organisms (Streptococci, Actinomyces sp., Veillonella & Fusobacterium sp. & others) and a yeast (Candida albicans) are allowed to grow on the hydroxyapatite. During the test period of 4 days, the discs are immersed, several times in all, in the below given application formulation of the substance (II),
# and at the end the biofilm is harvested and the number of living cells is determined.
# [5] = system: Escherichia coli ATCC 10536; assay: MIC in the agar incorporation test; format: cell-based; settings: 24 hours at 37° C., unit not given, method gives agar concentrations in ppm
# Method: (§8) Test solution: 1% stock solutions of all the test substances are prepared in a suitable solvent and diluted in serial dilutions as far as possible so that final concentrations of from 500 ppm to 10 ppm are obtained in the agar. Test principle: 0.3 ml of the particular dilution stage is mixed with 15 ml of still liquid nutrient medium. After solidification of the nutrient base, 10 μl of the test strains in a suitable organism dilution in 0.85% NaCl solution are applied point-wise to the agar medium: [table]
# [6] = system: Staphylococcus aureus ATCC 9144; assay: MIC in the agar incorporation test; format: cell-based; settings: 24 hours at 37° C., unit not given, method gives agar concentrations in ppm
# Method: as §8
# [7] = system: Proteus vulgaris ATCC 6896; assay: MIC in the agar incorporation test; format: cell-based; settings: unit not given, method gives agar concentrations in ppm
# Method: as §8
# [8] = system: Aspergillus niger ATCC 6275; assay: MIC in the agar incorporation test; format: cell-based; settings: Sabouraud 4% glucose agar, 3 days at 28° C., unit not given, method gives agar concentrations in ppm
# Method: as §8
# [9] = system: Propionibacterium acnes ATCC 6919; assay: MIC in the agar incorporation test; format: cell-based; settings: unit not given, method gives agar concentrations in ppm
# Method: as §8
# [10] = system: Pseudomonas aeruginosa ATCC 15442; assay: MIC in the agar incorporation test; format: cell-based; settings: 24 hours at 37° C., unit not given, method gives agar concentrations in ppm
# Method: as §8
# [11] = system: Staphylococcus epidermidis ATCC 12228; assay: MIC in the agar incorporation test; format: cell-based; settings: unit not given, method gives agar concentrations in ppm
# Method: as §8
# [12] = system: Candida albicans ATCC 10231; assay: MIC in the agar incorporation test; format: cell-based; settings: Sabouraud 4% glucose agar, 3 days at 28° C., unit not given, method gives agar concentrations in ppm
# Method: as §8
# [13] = system: Escherichia coli NCTC 8196; assay: MIC in the agar incorporation test; format: cell-based; settings: 24 hours at 37° C., unit not given, method gives agar concentrations in ppm
# Method: as §8
# [14] = system: Staphylococcus aureus ATCC 6538; assay: MIC in the agar incorporation test; format: cell-based; settings: 24 hours at 37° C., unit not given, method gives agar concentrations in ppm
# Method: as §8
# [15] = system: Corynebacterium minutissimum ATCC 23348; assay: MIC in the agar incorporation test; format: cell-based; settings: unit not given, method gives agar concentrations in ppm
# Method: as §8
# [16] = system: Klebsiella pneumoniae ATCC 4352; assay: MIC in the agar incorporation test; format: cell-based; settings: unit not given, method gives agar concentrations in ppm
# Method: as §8
# [17] = system: Salmonella choleraesuis ATCC 9184; assay: MIC in the agar incorporation test; format: cell-based; settings: unit not given, method gives agar concentrations in ppm
# Method: as §8
# A. viscosus ATCC43146 = assay: MIC against oral organisms in the serial dilution test; format: cell-based, Actinomyces viscosus; settings: thioglycolate broth, 7-10 days at 37° C. anaerobic, unit not given, stock solutions in ppm (w/w)
# Description: as §1, §2, §3, §4, §5, §6, §7
compound,measurement,setting,value
"CCCCCCCCCCCCOc1ccccc1C(=O)O [II, 2-dodecyloxy-benzoic acid]",MIC,P. gingivalis ATCC3277,7.5
same,MIC,S. gordonii ATCC10558,15
same,MIC,S. mutans ATCC33402,7.5
same,MIC,[1],>15
same,growth of Actinomyces viscosus after adsorption of the substance onto hydroxyapatite plates,[2],inhibition of the growth
same,MIC,[3],>15
same,MIC,P. nigrescens ATCC33563,>15
same,number of living cells of the harvested biofilm (mean values),"[4]; discs immersed several times during 4 days, two independent tests",1.2 × 10^5 CFU/disc and 1.7 × 10^5 CFU/disc
same,microbial count of the biofilm on the hydroxyapatite discs compared with the placebo formulation,[4]; test period of 4 days,marked reduction
same,Minimum Inhibitory Concentration (MIC),[5],>500
same,Minimum Inhibitory Concentration (MIC),[6],31.25
same,Minimum Inhibitory Concentration (MIC),[7],>500
same,Minimum Inhibitory Concentration (MIC),[8],>500
same,Minimum Inhibitory Concentration (MIC),[9],15.63
same,Minimum Inhibitory Concentration (MIC),[10],>500
same,Minimum Inhibitory Concentration (MIC),[11],15.63
same,Minimum Inhibitory Concentration (MIC),[12],>500
same,Minimum Inhibitory Concentration (MIC),[13],>500
same,Minimum Inhibitory Concentration (MIC),[14],31.25
same,Minimum Inhibitory Concentration (MIC),[15],15.63
same,Minimum Inhibitory Concentration (MIC),[16],>500
same,Minimum Inhibitory Concentration (MIC),[17],>500
same,MIC,A. viscosus ATCC43146,1.88
"CCCCCCCCCCCCCCCCOc1cc(C(=O)O)cc(C(=O)O)c1 [III, 5-hexadecyloxy-isophthalic acid]",MIC,P. gingivalis ATCC3277,≦0.94
same,MIC,S. gordonii ATCC10558,≦0.94
same,MIC,S. mutans ATCC33402,3.75
same,MIC,[1],15
same,growth of Actinomyces viscosus after adsorption of the substance onto hydroxyapatite plates,[2],inhibition of the growth
same,MIC,[3],>15
same,MIC,P. nigrescens ATCC33563,>15
same,Minimum Inhibitory Concentration (MIC),[5],>48
same,Minimum Inhibitory Concentration (MIC),[6],24
same,Minimum Inhibitory Concentration (MIC),[7],>48
same,Minimum Inhibitory Concentration (MIC),[8],>48
same,Minimum Inhibitory Concentration (MIC),[9],12
same,Minimum Inhibitory Concentration (MIC),[10],>48
same,Minimum Inhibitory Concentration (MIC),[11],12
same,Minimum Inhibitory Concentration (MIC),[12],>48
same,Minimum Inhibitory Concentration (MIC),[13],>48
same,Minimum Inhibitory Concentration (MIC),[14],24
same,Minimum Inhibitory Concentration (MIC),[15],24
same,Minimum Inhibitory Concentration (MIC),[16],>48
same,Minimum Inhibitory Concentration (MIC),[17],>48
same,MIC,A. viscosus ATCC43146,1.88

# Reference: patent US20070196407A1, “Alkoxyphenylcarboxylic acid derivatives” (priority 2004, published 2007)
